Read-outs that look alike come from different tables or passages of the source.
Assays:
TlpQ [1] = target: T1, TlpQ (Pseudomonas aeruginosa, UniProt Q9I0I4); test: isothermal titration calorimetry, […]°C; assay type: binding
TlpQ [2] = target: T1, TlpQ; test: isothermal titration calorimetry, […]°C; assay type: binding; remark: listed apart in the source

T1 sequence (Q9I0I4 33-363 limits assumed): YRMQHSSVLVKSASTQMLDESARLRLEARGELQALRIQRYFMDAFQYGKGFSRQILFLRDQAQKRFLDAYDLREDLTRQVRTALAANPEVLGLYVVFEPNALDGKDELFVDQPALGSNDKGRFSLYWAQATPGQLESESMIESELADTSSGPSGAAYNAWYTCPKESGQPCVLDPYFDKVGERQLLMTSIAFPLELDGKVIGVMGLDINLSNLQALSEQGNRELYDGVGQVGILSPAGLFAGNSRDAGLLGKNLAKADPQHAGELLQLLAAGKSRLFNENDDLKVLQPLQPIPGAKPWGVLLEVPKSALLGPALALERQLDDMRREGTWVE

| SMILES | Kd (TlpQ [1]) [µM] | Kd (TlpQ [2]) [µM] |
| --- | --- | --- |
| CNC[C@H](O)c1ccc(O)c(O)c1 [epinephrine] | 363 |  |
| NCCc1ccc(O)c(O)c1 [dopamine] |  | 137 |
